In experiment [1] the target is Recombinant human His-tagged Kat6a protein (amino acids 194-810) (Homo sapiens (Human), UniProt Q92794). In words: Kat6a activity assay (TR-FRET, acetylation of biotinylated Histone-H4-derived peptide). The conditions noted are these: 60 mins at 22° C., read-out: KAT6A-DPF/HAT domain IC50 [mol/l] (arithmetic mean). It counts as biochemical. Put shortly: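 TR-FRET read-out of H4 K8 acetylation, using anti-acetyl-K8 antibody and streptavidin acceptor, after anacardic acid stop; IC50 from four-parameter regression normalized to DMSO. Reaction: recombinant human Kat6a aa 194-810 (insect-cell derived), 220 nM H4 1-24 peptide, 600 nM acetyl-CoA, pH 8, 22 °C, 60 min, compounds 0.01-20 μM.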
(In general: In TR-FRET formats the signal depends on donor and acceptor labels being close together.)

Experiment [2] has as its target Recombinant human GST-tagged Kat6b protein (431-end). In words: Kat6b activity assay (TR-FRET, acetylation of biotinylated Histone-H4-derived peptide). Particulars: 30 mins at 22° C., read-out: KAT6B activity assay IC50 [mol/l] (arithmetic mean). It counts as biochemical.
The subject of experiment [3] is ESR1 transcription (luciferase signal in MVLN cells). The experiment can be described thus: Repression of ESR1 transcription, luciferase reporter in MVLN cells. It counts as cell-based. Particulars: Homo sapiens, MVLN, inhibition of luciferase signal in MVLN cells; arithmetic mean. Put shortly: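 Luminescence from an ER-driven Vitellogenin A2 element–luciferase reporter was measured after 24 h of treatment of MVLN cells, in duplicate wells. Alamar Blue (2 h, 530/590 nm) served as a cell-density control.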
(Reporter assays use an easily measured gene product as a stand-in for the process of interest.)

For a further experiment, the system named is ZR-75-1 cells. The experiment can be described thus: Proliferation assay ZR-75-1 (Alamar Blue, 144 h). It counts as cell-based. The conditions noted are these: Homo sapiens, ZR-75-1, 144 h, arithmetic mean, read-out: ZR75-1 proliferation assay, EC50 [M] (arithmetic mean). Put shortly:
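Alamar Blue fluorescence (590 nm, 2 h reagent step) measured viability after 144 h compound exposure at 37 °C, 5% CO2. Compounds spanned 2.0×10E-5 to 2.0×10E-9 M in 9 dilutions at 0.2% DMSO, in triplicate, added 24 h after plating 3000 cells/well in RPMI 1640 plus 2.5% FBS.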
(In general: Alamar Blue is a resazurin reagent that responds to reducing activity.)

The next experiment relates to MDA-MB-436 cells. In words: Proliferation assay MDA-MB-436, negative control cell line (Alamar Blue, 144 h). It counts as cell-based. Particulars: Homo sapiens, MDA-MB-436, 144 h, arithmetic mean. Put shortly: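 Viability read as Alamar Blue fluorescence (590 nm, 2 h) after 144 h compound exposure at 37 °C, 5% CO2. Cells seeded at 3000 per well in 2.5% FBS DMEM/Ham's F12, dosed a day later over 2.0×10E-9–2.0×10E-5 M in 9 steps with 0.2% DMSO, in triplicate.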

Sequence of Recombinant human His-tagged Kat6a protein (amino acids 194-810) (Q92794 194-810): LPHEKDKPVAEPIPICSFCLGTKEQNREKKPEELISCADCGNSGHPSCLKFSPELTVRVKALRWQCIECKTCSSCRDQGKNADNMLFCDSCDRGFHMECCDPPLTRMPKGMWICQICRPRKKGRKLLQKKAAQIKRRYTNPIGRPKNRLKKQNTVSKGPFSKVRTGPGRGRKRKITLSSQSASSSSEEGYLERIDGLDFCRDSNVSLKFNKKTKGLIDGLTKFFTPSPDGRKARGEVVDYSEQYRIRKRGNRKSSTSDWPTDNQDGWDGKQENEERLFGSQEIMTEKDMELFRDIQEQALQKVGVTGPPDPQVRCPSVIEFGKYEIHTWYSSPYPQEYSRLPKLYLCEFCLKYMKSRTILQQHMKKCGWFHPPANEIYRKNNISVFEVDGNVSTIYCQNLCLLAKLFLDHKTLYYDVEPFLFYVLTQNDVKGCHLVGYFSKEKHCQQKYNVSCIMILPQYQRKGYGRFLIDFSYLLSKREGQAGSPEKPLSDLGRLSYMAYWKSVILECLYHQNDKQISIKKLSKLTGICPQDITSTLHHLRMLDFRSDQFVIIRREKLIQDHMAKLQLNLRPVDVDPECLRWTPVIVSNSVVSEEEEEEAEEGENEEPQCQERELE

Take `CCOc1cccc(C)c1S(=O)(=O)NC(=O)c1cc2ccc(N(C)C)cc2o1` [Example 116, 6-(Dimethylamino)-N-(2-ethoxy-6-methylbenzene-1-sulfonyl)-1-benzofuran-2-carboxamide]: the IC50 is 453 nM in experiment [1], 508 nM in experiment [2] and 270 nM in experiment [3]. Also, the EC50 is 3.24e-07 M with ZR-75-1 cells and over 20000 nM with MDA-MB-436 cells.
In the case of `CN(C)c1ccc2cc(C(=O)NS(=O)(=O)c3ccccc3OCCNC(=O)OC(C)(C)C)oc2c1` [Example 117, tert-butyl [2-(2-{[6-(dimethylamino)-1-benzofuran-2-carbonyl]sulfamoyl}phenoxy)ethyl]carbamate], the IC50 in experiment [1] was 294 nM; in experiment [2] it was 342 nM; in experiment [3] it was 276 nM. Further, the EC50 was 6.03e-07 M in the experiment with ZR-75-1 cells and over 20000 nM with MDA-MB-436 cells.
For `CCCOc1cccc(CC)c1S(=O)(=O)NC(=O)c1cc2ccc(N(C)C)cc2o1` [Example 119, 6-(Dimethylamino)-N-(2-ethyl-6-propoxybenzene-1-sulfonyl)-1-benzofuran-2-carboxamide], the results for the IC50 in experiment [1], in experiment [2] and in experiment [3] were 185 nM, 374 nM and 218 nM, respectively. Moreover, the EC50 was 6.98e-07 M in the experiment on ZR-75-1 cells and over 20000 nM in the experiment on MDA-MB-436 cells.
For `CCOc1cccc(Br)c1S(=O)(=O)NC(=O)c1cc2ccc(N(C)C)cc2o1` [Example 121, N-(2-Bromo-6-ethoxybenzene-1-sulfonyl)-6-(dimethylamino)-1-benzofuran-2-carboxamide], the figures for the IC50 in experiment [1], in experiment [2] and in experiment [3] were 179 nM, 227 nM and 275 nM, respectively. The results for the EC50 with ZR-75-1 cells and with MDA-MB-436 cells were 3.56e-07 M and over 20000 nM, respectively.
As to `CCOc1cccc(F)c1S(=O)(=O)NC(=O)c1cc2ccc(N(C)C)cc2o1` [Example 123, 6-(Dimethylamino)-N-(2-ethoxy-6-fluorobenzene-1-sulfonyl)-1-benzofuran-2-carboxamide], the IC50 in experiment [1] was 275 nM; in experiment [2], 257 nM; in experiment [3], 179 nM. The EC50 in the experiment on ZR-75-1 cells was 1.19e-07 M; with MDA-MB-436 cells, over 20000 nM.
On the same counts, the results for `CN(C)c1ccc2cc(C(=O)NS(=O)(=O)c3cccc4ccc(Cl)nc34)oc2c1` [Example 126, N-(2-Chloroquinoline-8-sulfonyl)-6-(dimethylamino)-1-benzofuran-2-carboxamide] are 20.5 nM, 23.8 nM, 30.6 nM, 6.98e-08 M and over 20000 nM.
Consider `CCOc1ccc(C(C)C)cc1S(=O)(=O)NC(=O)c1cc2ccc(N(C)C)cc2o1` [Example 129, 6-(Dimethylamino)-N-[2-ethoxy-5-(propan-2-yl)benzene-1-sulfonyl]-1-benzofuran-2-carboxamide], for which the results for the IC50 in experiment [1], in experiment [2] and in experiment [3] were 13.5 nM, 16.8 nM and 28.6 nM, respectively. Further, the EC50 in the experiment with ZR-75-1 cells was 6.17e-07 M; in the experiment on MDA-MB-436 cells, over 20000 nM.
With `COc1cccc(C(F)(F)F)c1S(=O)(=O)NC(=O)c1cc2ccc(N(C)C)cc2o1` [Example 132, 6-(Dimethylamino)-N-[2-methoxy-6-(trifluoromethyl)benzene-1-sulfonyl]-1-benzofuran-2-carboxamide], the IC50 in experiment [1] is 134 nM; in experiment [2], 72.7 nM; in experiment [3], 80.1 nM. Moreover, the EC50 in the experiment with ZR-75-1 cells was 1.05e-07 M; in the experiment with MDA-MB-436 cells, over 20000 nM.
For the compound `CN(C)c1ccc2cc(C(=O)NS(=O)(=O)c3cc(Cl)c(Cl)cc3OC(F)(F)F)oc2c1` [Example 137, N-[4,5-Dichloro-2-(trifluoromethoxy)benzene-1-sulfonyl]-6-(dimethylamino)-1-benzofuran-2-carboxamide], the IC50 in experiment [1] was 81.5 nM; in experiment [2] it was 107 nM; in experiment [3] it was 5500 nM. The EC50 with ZR-75-1 cells is 5.61e-06 M; in the experiment with MDA-MB-436 cells, over 20000 nM.
With `COc1cc(C)c(Cl)cc1S(=O)(=O)NC(=O)c1cc2ccc(N(C)C)cc2o1` [Example 138, N-(5-Chloro-2-methoxy-4-methylbenzene-1-sulfonyl)-6-(dimethylamino)-1-benzofuran-2-carboxamide], the results for the IC50 in experiment [1], in experiment [2] and in experiment [3] were 56.7 nM, 79.5 nM and 216 nM, respectively. Further, the EC50 with ZR-75-1 cells is 5.01e-07 M; with MDA-MB-436 cells it was over 20000 nM.
The corresponding values for `COc1ccc(Cl)c(S(=O)(=O)NC(=O)c2cc3ccc(N(C)C)cc3o2)c1` [Example 139, N-(2-Chloro-5-methoxybenzene-1-sulfonyl)-6-(dimethylamino)-1-benzofuran-2-carboxamide] are 329 nM, 369 nM, 1370 nM, 7.07e-07 M and over 20000 nM.
With `CN(C)c1ccc2cc(C(=O)NS(=O)(=O)c3c(F)cccc3OC3CCC3)oc2c1` [Example 142, N-[2-(Cyclobutyloxy)-6-fluorobenzene-1-sulfonyl]-6-(dimethylamino)-1-benzofuran-2-carboxamide], the IC50 in experiment [1] was 139 nM; in experiment [2] it was 229 nM; in experiment [3], 166 nM. In addition, the EC50 in the experiment on ZR-75-1 cells was 4.37e-07 M; in the experiment on MDA-MB-436 cells it was over 20000 nM.
The corresponding values for `CCOc1ccc(CC)cc1S(=O)(=O)NC(=O)c1cc2ccc(N(C)C)cc2o1` [Example 143, 6-(Dimethylamino)-N-(2-ethoxy-5-ethylbenzene-1-sulfonyl)-1-benzofuran-2-carboxamide] are 29.3 nM, 43.1 nM, 40.8 nM, 6.42e-08 M and over 20000 nM.
`CCc1cccc(OC)c1S(=O)(=O)NC(=O)c1cc2ccc(N(C)C)cc2o1` [Example 147, 6-(Dimethylamino)-N-(2-ethyl-6-methoxybenzene-1-sulfonyl)-1-benzofuran-2-carboxamide]: the IC50 in experiment [1] was 98.6 nM; in experiment [2], 69.2 nM; in experiment [3], 86.8 nM. Also, the EC50 was 7.83e-08 M with ZR-75-1 cells and over 20000 nM in the experiment on MDA-MB-436 cells.
Turning to `COc1ccc(Br)cc1S(=O)(=O)NC(=O)c1cc2ccc(N(C)C)cc2o1` [Example 148, N-(5-Bromo-2-methoxybenzene-1-sulfonyl)-6-(dimethylamino)-1-benzofuran-2-carboxamide], the IC50 in experiment [1] was 104 nM; in experiment [2] it was 68 nM; in experiment [3], 121 nM. Also, the EC50 in the experiment with ZR-75-1 cells is 1.28e-07 M; in the experiment on MDA-MB-436 cells it was over 20000 nM.
`COc1ccc(Cl)cc1S(=O)(=O)NC(=O)c1cc2ccc(N(C)C)cc2o1` [Example 149, N-(5-chloro-2-methoxybenzene-1-sulfonyl)-6-(dimethylamino)-1-benzofuran-2-carboxamide]: the IC50 in experiment [1] stood at 123 nM; in experiment [2], 379 nM; in experiment [3] it was 138 nM. The EC50 with ZR-75-1 cells is 1.74e-07 M; with MDA-MB-436 cells it was over 20000 nM.
On the same counts, the results for `CN(C)c1ccc2cc(C(=O)NS(=O)(=O)c3cc(C(C)(C)C)ccc3OCc3ccccc3)oc2c1` [Example 179, N-[(2-(Benzyloxy)-5-(tert-butyl)phenyl)sulfonyl]-6-(dimethylamino)benzofuran-2-carboxamide] are 8.95 nM, 19.4 nM, 15.9 nM, 6.79e-08 M and over 20000 nM.
On the same counts, the results for `CN(C)c1ccc2cc(C(=O)NS(=O)(=O)c3cc(C(C)(C)C)ccc3OCC3CC3)oc2c1` [Example 180, N-((5-(tert-butyl)-2-(cyclopropylmethoxy)phenyl)sulfonyl)-6-(dimethylamino)benzofuran-2-carboxamide] are 4.36 nM, 21.3 nM, 22.9 nM, 3.77e-08 M and over 20000 nM.
As to `CN(C)c1ccc2cc(C(=O)NS(=O)(=O)c3cc(C(C)(C)C)ccc3OCC(F)(F)F)oc2c1` [Example 181, N-[(5-(tert-butyl)-2-(2,2,2-trifluoroethoxy)phenyl)sulfonyl]-6-(dimethylamino)benzofuran-2-carboxamide], the IC50 in experiment [1] came out at 11.8 nM; in experiment [2] it was 43.5 nM; in experiment [3], 30.1 nM. For the same compound, the EC50 in the experiment on ZR-75-1 cells was 9.93e-08 M; in the experiment with MDA-MB-436 cells it was over 20000 nM.
On the same counts, the results for `CN(C)c1ccc2cc(C(=O)NS(=O)(=O)c3cc(C(C)(C)C)ccc3OC3CCC3)oc2c1` [Example 182, N-[(5-(tert-butyl)-2-cyclobutoxyphenyl)sulfonyl]-6-(dimethylamino)benzofuran-2-carboxamide] are 2.67 nM, 11.9 nM, 22 nM, 6.1e-08 M and over 20000 nM.

The record behind these values is patent US12357603B2, “Acyl sulfonamides for treating cancer” (Bayer Aktiengesellschaft, priority 2019, dated 2025).
